# Results published in publication doi:10.1101/706028v1 (biorxiv, 2019).
# Assays:
# [1] = biological target: Nluc-SMO (Mus musculus, UniProt P56726, D477G/E522K); experiment: NanoBRET saturation binding, live cells; assay type: cell-based
# [2] = biological target: ΔCRD Nluc-SMO (Mus musculus, UniProt P56726, D477G/E522K); experiment: NanoBRET saturation binding, live cells; assay type: cell-based
# ΔCRD Nluc-SMO, sequence (P56726 185-793 D477G/E522K): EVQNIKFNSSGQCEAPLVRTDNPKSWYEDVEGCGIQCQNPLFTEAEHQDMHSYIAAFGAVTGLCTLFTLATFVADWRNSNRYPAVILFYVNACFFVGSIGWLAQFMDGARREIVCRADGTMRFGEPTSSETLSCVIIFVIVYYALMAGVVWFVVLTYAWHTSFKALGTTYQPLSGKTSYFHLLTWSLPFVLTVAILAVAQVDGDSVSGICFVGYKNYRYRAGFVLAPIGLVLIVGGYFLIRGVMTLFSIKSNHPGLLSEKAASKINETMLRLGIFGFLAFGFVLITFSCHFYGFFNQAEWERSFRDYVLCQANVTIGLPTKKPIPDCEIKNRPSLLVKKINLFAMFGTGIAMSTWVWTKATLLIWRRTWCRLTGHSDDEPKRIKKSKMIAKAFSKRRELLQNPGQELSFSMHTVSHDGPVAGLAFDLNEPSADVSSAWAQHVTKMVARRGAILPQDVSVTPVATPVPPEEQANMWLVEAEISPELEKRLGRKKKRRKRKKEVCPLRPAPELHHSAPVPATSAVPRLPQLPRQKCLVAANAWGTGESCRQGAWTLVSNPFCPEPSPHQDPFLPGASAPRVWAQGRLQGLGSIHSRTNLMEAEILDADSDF
# Nluc-SMO, sequence (P56726 33-793 D477G/E522K): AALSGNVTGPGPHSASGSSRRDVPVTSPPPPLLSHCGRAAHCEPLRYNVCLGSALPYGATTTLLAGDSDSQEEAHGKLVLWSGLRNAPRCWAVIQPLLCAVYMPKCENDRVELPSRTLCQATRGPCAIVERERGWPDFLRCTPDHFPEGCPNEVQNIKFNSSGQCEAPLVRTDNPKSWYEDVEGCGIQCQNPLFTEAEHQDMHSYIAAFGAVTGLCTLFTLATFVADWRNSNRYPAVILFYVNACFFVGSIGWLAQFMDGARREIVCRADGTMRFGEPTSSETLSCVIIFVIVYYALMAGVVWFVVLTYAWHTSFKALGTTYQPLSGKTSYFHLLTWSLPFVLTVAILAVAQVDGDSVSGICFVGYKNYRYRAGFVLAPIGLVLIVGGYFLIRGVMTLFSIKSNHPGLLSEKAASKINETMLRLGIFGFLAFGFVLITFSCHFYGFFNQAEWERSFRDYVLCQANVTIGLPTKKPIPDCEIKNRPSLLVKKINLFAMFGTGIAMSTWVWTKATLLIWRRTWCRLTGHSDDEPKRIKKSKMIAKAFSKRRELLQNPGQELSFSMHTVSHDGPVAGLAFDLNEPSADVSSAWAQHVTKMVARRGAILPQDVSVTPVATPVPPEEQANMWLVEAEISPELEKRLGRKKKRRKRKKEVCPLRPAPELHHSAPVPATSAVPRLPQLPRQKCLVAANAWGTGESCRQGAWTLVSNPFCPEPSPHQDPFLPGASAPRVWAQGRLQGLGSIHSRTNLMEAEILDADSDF
smiles,measurement,setting,value
CC1=CC(C)=[N+]2C1=Cc1ccc(CCC(=O)NCCCCCC(=O)NCCN3C[C@@H](C)C[C@H]4O[C@]5(CC[C@@H]6C(=C5C)C[C@H]5[C@H]6CC=C6C[C@@H](O)CC[C@@]65C)[C@H](C)[C@@H]43)n1[B-]2(F)F [BODIPY-cyclopamine],Kd,[1],666 ± 122 nM
same,Kd,[2],450 ± 38.7 nM
